Our source for the IC50, inhibition and Ki values is ChEMBL document CHEMBL4118055, “Chemoenzymatic Synthesis and α-Glucosidase Inhibitory Activity of Dimeric Neolignans Inspired by Magnolol” (J Nat Prod, 2017).

Test [1] is described as follows: Inhibition of yeast alpha-glucosidase using p-nitrophenyl-alpha-glucopyranoside as substrate measured after 30 mins. Further details: species or system Saccharomyces cerevisiae.
The next test concerns Saccharomyces cerevisiae. In words: Inhibition of yeast alpha-glucosidase at 1.5 uM using p-nitrophenyl-alpha-glucopyranoside as substrate measured after 30 mins relative to control.
Test [2] is described as follows: Competitive-inhibition of yeast alpha-glucosidase using varying levels of p-nitrophenyl-alpha-glucopyranoside as substrate incubated for 20 mins measured at 1 min interval by Lineweaver-burk plot analysis. More on the design: species or system Saccharomyces cerevisiae.

As to `C=CCc1ccc(O)c(-c2cc(CC=C)cc(O)c2O)c1`, half-maximal inhibition in test [1] (IC50) was put at 0.49 µM. Besides, the inhibition (in general, the drop in the measured response relative to a control, in per cent) in the test on Saccharomyces cerevisiae came out at 97.6%.
For `COc1cc(CCOC(C)=O)cc(-c2cc(CCOC(C)=O)cc(OC)c2O)c1O`, half-maximal inhibition in test [1] (IC50) required 1.1 µM. The compound also registered an inhibition in the test with Saccharomyces cerevisiae of 64.5%.
On to `C=CCc1cc(O)c(O)c(-c2cc(CC=C)cc(OC)c2O)c1`, for which the IC50 (usually the concentration needed to halve the response being measured) in test [1] came out at 0.5 µM. In the test with Saccharomyces cerevisiae, this compound gave an inhibition of 98%.
Take `C=CCc1cc(OC)c(O)c(-c2cc(CC=C)cc(OC)c2O)c1`: half-maximal inhibition in test [1] (IC50) was put at 2 µM. The inhibition with Saccharomyces cerevisiae was found to be 46.7%.
In test [1], `C=CCc1ccc(O)c(-c2ccc(O)c(CC=C)c2)c1` [HONOKIOL] registered a concentration for half-maximal inhibition (IC50) of 23 µM. Also, the inhibition in the test on Saccharomyces cerevisiae is 3.9%.
`O=c1c(O)c(-c2ccc(O)c(O)c2)oc2cc(O)cc(O)c12` [QUERCETIN] gave a concentration for half-maximal inhibition (IC50) in test [1] of 14.2 µM. The inhibition in the test on Saccharomyces cerevisiae was determined as 5.3%.
In turn, `COc1cc(CCOC(C)=O)cc(-c2cc(CCOC(C)=O)cc(O)c2O)c1O` came in with a concentration for half-maximal inhibition (IC50) in test [1] of 3.3 µM. In the test with Saccharomyces cerevisiae, the inhibition amounted to 21.3%.
Consider `COc1cc(CCO)cc(-c2cc(CCO)cc(OC)c2O)c1O`, for which the half-inhibitory concentration (IC50) in test [1] was greater than 100 µM.
Take `CC(=O)OCCc1cc(O)c(O)c(-c2cc(CCOC(C)=O)cc(O)c2O)c1`: half-maximal inhibition in test [1] (IC50) required 2.9 µM. Also, the inhibition with Saccharomyces cerevisiae was 31.4%.
In the case of `COc1cc(CCO)cc(-c2cc(CCO)cc(O)c2O)c1O`, the concentration for half-maximal inhibition (IC50) in test [1] is greater than 100 µM.
Consider `C=CCc1cc(O)c(O)c(-c2cc(CC=C)cc(O)c2O)c1`, for which the 50% inhibitory concentration (IC50) in test [1] stood at 2.1 µM. In the test with Saccharomyces cerevisiae, this compound displayed an inhibition of 36.7%.
On the same counts, the results for `OCCc1ccc(O)c(-c2cc(CCO)ccc2O)c1` are 0.86 µM and 76.9%.
`C=CCc1ccc(O)c(-c2cc(CC=C)ccc2O)c1` [MAGNOLOL] returned an IC50 in test [1] of 2 µM. The same compound had an inhibition with Saccharomyces cerevisiae of 29.8%.
In test [1], `CC(=O)OCCc1ccc(O)c(-c2cc(CCOC(C)=O)ccc2O)c1` displayed an IC50 of 0.15 µM. Moreover, the inhibition constant (Ki) (usually a measure of affinity in units of concentration, obtained from inhibition or displacement) in test [2] is 0.86 µM. The inhibition in the test on Saccharomyces cerevisiae was 98.9%.
Regarding `OCCc1cc(O)c(O)c(-c2cc(CCO)cc(O)c2O)c1`, in test [1], the 50% inhibitory concentration (IC50) was 4.1 µM. The compound further came in with an inhibition in the test with Saccharomyces cerevisiae of 18.2%.
`C[C@H]1O[C@H](O[C@H]2[C@H](O)[C@@H](O)[C@@H](O[C@H]3[C@H](O)[C@@H](O)C(O)O[C@@H]3CO)O[C@@H]2CO)[C@H](O)[C@@H](O)[C@@H]1N[C@H]1C=C(CO)[C@@H](O)[C@H](O)[C@H]1O` (stereo partly specified) [ACARBOSE]: the IC50 in test [1] turned out to be 270 µM. Moreover, the inhibition in the test on Saccharomyces cerevisiae is 0.7%.
